What was measured:
Type in all cases: cell-based
Proteus mirabilis = assay: MIC against Gram-negative bacteria: Proteus mirabilis; settings: 5×10^5 CFU/mL; for MIC against P. mirabilis: Proteus mirabilis
Method in brief: (§1)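 LB broth cultures at McFarland 0.5, spun down, resuspended, diluted to 5×10^5 CFU/mL final. Two-fold serial dilutions of purified human EGF domain proteins, triplicate. 37° C, 175 rpm shaking. Endpoint: no visible growth.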

Aeromonas hydrophila = assay: MIC against Gram-negative bacteria: Aeromonas hydrophila; settings: 5×10^5 CFU/mL; for MIC against A. hydrophila: Aeromonas hydrophila
Method in brief: as §1

Enterobacter cloacae = assay: MIC against Gram-negative bacteria: Enterobacter cloacae; settings: 5×10^5 CFU/mL; for MIC against E. cloacae: Enterobacter cloacae
Method in brief: as §1

Serratia marcescens = assay: MIC against Gram-negative bacteria: Serratia marcescens; settings: 5×10^5 CFU/mL; for MIC against S. marcescens: Serratia marcescens
Method in brief: as §1

E. coli DH5α = assay: Antibacterial activity: MIC and growth curve against E. coli DH5α in 96-well plate; settings: minimal inhibitory concentration against E. coli DH5α; 96-well plate, 5×10^5 CFU/mL, 37° C., judged after 8 h
Method in brief: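 Log-phase bacteria (OD600 ~0.5) resuspended in LB at 5×10^5 CFU/mL, exposed to recombinant protein at 50, 25, 12.5 μg/mL final in triplicate, 37 °C shaking at 175 rpm. OD600 read every 30 min; MIC is lowest concentration showing no growth.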

Pseudomonas aeruginosa = assay: MIC against Gram-negative bacteria: Pseudomonas aeruginosa; settings: 5×10^5 CFU/mL; for MIC against P. aeruginosa: Pseudomonas aeruginosa
Method in brief: as §1

Citrobacter diversus = assay: MIC against Gram-negative bacteria: Citrobacter diversus; settings: 5×10^5 CFU/mL; for MIC against C. diversus: Citrobacter diversus
Method in brief: as §1

E. coli BL21 = assay: MIC against Gram-negative bacteria: E. coli BL21; settings: 5×10^5 CFU/mL
Method in brief: as §1

Proteus vulgaris = assay: MIC against Gram-negative bacteria: Proteus vulgaris; settings: 5×10^5 CFU/mL; for MIC against P. vulgaris: Proteus vulgaris
Method in brief: as §1

Klebsiella pneumonia = assay: MIC against Gram-negative bacteria: Klebsiella pneumonia; settings: 5×10^5 CFU/mL; for MIC against K. pneumonia: Klebsiella pneumonia
Method in brief: as §1

Moraxella catarrhalis = assay: MIC against Gram-negative bacteria: Moraxella catarrhalis; settings: 5×10^5 CFU/mL; for MIC against M. catarrhalis: Moraxella catarrhalis
Method in brief: as §1

[1] = E. coli BL21, 10 h cultivation at 37° C.
[2] = 10 h cultivation at 37° C., two-fold serial dilution

With “PRT1410 (IEGCPGLCNSNGRCTLDQNGWHCVCQPGWRGAGCD; listed as Homo sapiens)” the “MIC against P. mirabilis” value (Proteus mirabilis; 10 h cultivation at 37° C.) was 50 µg/mL, the “MIC against A. hydrophila” value (Aeromonas hydrophila; 10 h cultivation at 37° C.) was 12.5 µg/mL and the “MIC against E. cloacae” value (Enterobacter cloacae; 10 h cultivation at 37° C.) was 25 µg/mL. The “MIC against S. marcescens” value (Serratia marcescens; 10 h cultivation at 37° C.) was 12.5 µg/mL, the MIC (E. coli DH5α) was 25 µg/mL and the “MIC against P. aeruginosa” value (Pseudomonas aeruginosa; 10 h cultivation at 37° C.) was 25 µg/mL. The “MIC against C. diversus” value (Citrobacter diversus; 10 h cultivation at 37° C.) was 50 µg/mL, the “MIC against E. coli BL21” value (E. coli BL21; [1]) was 12.5 µg/mL and the “MIC against P. vulgaris” value (Proteus vulgaris; 10 h cultivation at 37° C.) was 12.5 µg/mL. The “MIC against K. pneumonia” value (Klebsiella pneumonia; 10 h cultivation at 37° C.) was 50 µg/mL and the “MIC against M. catarrhalis” value (Moraxella catarrhalis; 10 h cultivation at 37° C.) was 100 µg/mL.

For “PRT1471 (GKNWCEEDMENGGCEYLCLPAPQINDHSPKYTCSCPSGYNVEENGRDCQ; listed as Homo sapiens)”, the “MIC against P. mirabilis” value (Proteus mirabilis; 10 h cultivation at 37° C.) was 25 µg/mL, the “MIC against A. hydrophila” value (Aeromonas hydrophila; 10 h cultivation at 37° C.) was 25 µg/mL and the “MIC against E. cloacae” value (Enterobacter cloacae; 10 h cultivation at 37° C.) was 50 µg/mL. The “MIC against S. marcescens” value (Serratia marcescens; 10 h cultivation at 37° C.) was 25 µg/mL, the MIC (E. coli DH5α) was 12.5 µg/mL and the “MIC against P. aeruginosa” value (Pseudomonas aeruginosa; 10 h cultivation at 37° C.) was 50 µg/mL. For the same substance, the “MIC against C. diversus” value (Citrobacter diversus; 10 h cultivation at 37° C.) was 50 µg/mL, the “MIC against E. coli BL21” value (E. coli BL21; [1]) was 25 µg/mL and the “MIC against P. vulgaris” value (Proteus vulgaris; 10 h cultivation at 37° C.) was 50 µg/mL. The “MIC against K. pneumonia” value (Klebsiella pneumonia; 10 h cultivation at 37° C.) was 12.5 µg/mL and the “MIC against M. catarrhalis” value (Moraxella catarrhalis; 10 h cultivation at 37° C.) was 25 µg/mL.

In the case of “PRT758 (RVDHCAQQDHGCEQLCLNTEDSFVCQCSEGFLINEDLKTCS; listed as Homo sapiens)”, the “MIC (μg/mL) P. mirabilis” value (Proteus mirabilis; P. mirabilis, 10 h cultivation at 37° C.) is reported as 25 µg/mL, the “MIC (μg/mL) A. hydrophila” value (Aeromonas hydrophila; A. hydrophila, 10 h cultivation at 37° C.) is reported as 50 µg/mL and the “MIC (μg/mL) E. cloacae” value (Enterobacter cloacae; E. cloacae, 10 h cultivation at 37° C.) is reported as 25 µg/mL. The “MIC (μg/mL) S. marcescens” value (Serratia marcescens; S. marcescens, 10 h cultivation at 37° C.) was 12.5 µg/mL, the MIC (E. coli DH5α) was 12.5 µg/mL and the “MIC (μg/mL) P. aeruginosa” value (Pseudomonas aeruginosa; P. aeruginosa, 10 h cultivation at 37° C.) was 50 µg/mL. For the same substance, the “MIC (μg/mL) C. diversus” value (Citrobacter diversus; C. diversus, 10 h cultivation at 37° C.) was 25 µg/mL, the “MIC (μg/mL) E. coli BL21” value (E. coli BL21; [1]) was 25 µg/mL and the “MIC (μg/mL) P. vulgaris” value (Proteus vulgaris; P. vulgaris, 10 h cultivation at 37° C.) was 12.5 µg/mL. The “MIC (μg/mL) K. pneumonia” value (Klebsiella pneumonia; K. pneumonia, 10 h cultivation at 37° C.) was 50 µg/mL and the “MIC (μg/mL) M. catarrhalis” value (Moraxella catarrhalis; M. catarrhalis, 10 h cultivation at 37° C.) was 12.5 µg/mL.

With “PRT655 (DVDECATTDPCVGGHCVNTEGSFNCLCETGFQPSPESGECV; listed as Homo sapiens)” the “MIC P. mirabilis” value (Proteus mirabilis; 96-well plate, 37° C., 10 h) was 25 µg/mL, the “MIC A. hydrophila” value (Aeromonas hydrophila; 96-well plate, 37° C., 10 h) was 25 µg/mL and the “MIC E. cloacae” value (Enterobacter cloacae; 96-well plate, 37° C., 10 h) was 50 µg/mL. The “MIC S. marcescens” value (Serratia marcescens; 96-well plate, 37° C., 10 h) was 25 µg/mL, the MIC (E. coli DH5α) was 25 µg/mL and the “MIC P. aeruginosa” value (Pseudomonas aeruginosa; 96-well plate, 37° C., 10 h) was 12.5 µg/mL. The “MIC C. diversus” value (Citrobacter diversus; 96-well plate, 37° C., 10 h) was 12.5 µg/mL, the “MIC E. coli BL21” value (E. coli BL21; 96-well plate, 37° C., 10 h) was 50 µg/mL and the “MIC P. vulgaris” value (Proteus vulgaris; 96-well plate, 37° C., 10 h) was 12.5 µg/mL. For the same substance, the “MIC K. pneumonia” value (Klebsiella pneumonia; 96-well plate, 37° C., 10 h) was 25 µg/mL and the “MIC M. catarrhalis” value (Moraxella catarrhalis; 96-well plate, 37° C., 10 h) was 50 µg/mL.

For “PRT1174 (DLNYCGTHQPCLNGGTCSNTGPDKYQCSCPEGYSGPNCE; listed as Homo sapiens)”, the “MIC P. mirabilis” value (Proteus mirabilis; [2]) was 12.5 µg/mL, the “MIC A. hydrophila” value (Aeromonas hydrophila; [2]) was 50 µg/mL and the “MIC E. cloacae” value (Enterobacter cloacae; [2]) was 12.5 µg/mL. The “MIC S. marcescens” value (Serratia marcescens; [2]) was 50 µg/mL, the MIC (E. coli DH5α) was 12.5 µg/mL and the “MIC P. aeruginosa” value (Pseudomonas aeruginosa; [2]) was 12.5 µg/mL. The “MIC C. diversus” value (Citrobacter diversus; [2]) was 12.5 µg/mL, the “MIC E. coli BL21” value (E. coli BL21; [2]) was 50 µg/mL and the “MIC P. vulgaris” value (Proteus vulgaris; [2]) was 25 µg/mL. For the same substance, the “MIC K. pneumonia” value (Klebsiella pneumonia; [2]) was 50 µg/mL and the “MIC M. catarrhalis” value (Moraxella catarrhalis; [2]) was 50 µg/mL.

In the case of “PRT1212 (DIDECSGNPCLHGALCENTHGSYHCNCSHEYRGRHCE; listed as Homo sapiens)”, the “MIC against P. mirabilis” value (Proteus mirabilis; 96-well plate, 37° C., 10 h) is reported as 50 µg/mL, the “MIC against A. hydrophila” value (Aeromonas hydrophila; 96-well plate, 37° C., 10 h) is reported as 25 µg/mL and the “MIC against E. cloacae” value (Enterobacter cloacae; 96-well plate, 37° C., 10 h) is reported as 25 µg/mL. The “MIC against S. marcescens” value (Serratia marcescens; 96-well plate, 37° C., 10 h) was 12.5 µg/mL, the MIC (E. coli DH5α) was 50 µg/mL and the “MIC against P. aeruginosa” value (Pseudomonas aeruginosa; 96-well plate, 37° C., 10 h) was 12.5 µg/mL. For the same substance, the “MIC against C. diversus” value (Citrobacter diversus; 96-well plate, 37° C., 10 h) was 12.5 µg/mL, the “MIC against E. coli BL21” value (E. coli BL21; E. coli BL21, 96-well plate, 37° C., 10 h) was 25 µg/mL and the “MIC against P. vulgaris” value (Proteus vulgaris; 96-well plate, 37° C., 10 h) was 25 µg/mL. For the same substance, the “MIC against K. pneumonia” value (Klebsiella pneumonia; 96-well plate, 37° C., 10 h) was 50 µg/mL and the “MIC against M. catarrhalis” value (Moraxella catarrhalis; 96-well plate, 37° C., 10 h) was 25 µg/mL.
